Patent US8541418B2, “Inhibitors of polo-like kinase” (Elan Pharmaceutical, Inc., priority 2009, dated 2013)

How the values were obtained:
[1] = biological target: T1, PLK1 (Homo sapiens, UniProt P53350); experiment: PLK TR-FRET peptide assay, PLK1; format: biochemical; conditions: GST-PLK1, 60 min reaction
[2] = biological target: T2, PLK2 (Homo sapiens, UniProt Q9NYY3); experiment: PLK TR-FRET peptide assay, PLK2; format: biochemical; conditions: PLK TR-FRET peptide assay, GST-PLK2, 60 min reaction; read-out: Plk2 IC50
[3] = biological target: PLK3 (Homo sapiens, UniProt Q9H4B4); experiment: PLK TR-FRET peptide assay, PLK3; format: biochemical; conditions: GST-PLK3, 15 min reaction, read-out: Plk3 IC50
[4] = biological target: T1, PLK1; experiment: Kinase panel screening at InVitrogen, PLK1; conditions: 10 μM compound
[5] = biological target: T2, PLK2; experiment: Kinase panel screening at InVitrogen, PLK2; conditions: 10 μM compound
[6] = biological target: KDR (Homo sapiens, UniProt P35968); experiment: Kinase panel screening and titration, KDR; conditions: read-out: inhibition of KDR
[7] = biological target: ABL1 (Homo sapiens, UniProt P00519); experiment: Kinase panel screening and titration, ABL1; conditions: read-out: inhibition of ABL1
[8] = test system: over 300 kinases, including CDK-1, CDK-2, CDK-5, CLK-1, CLK-2, CLK-3, CLK-4, NEK-1, NEK-2, NEK-4, NEK-6, NEK-7, MAP4K4 and STK16; experiment: Kinase panel screening at InVitrogen, over 300 kinases; conditions: 10 μM compound; all but 21 of the kinases, including CDK-1, CDK-2, CDK-5, CLK-1 to CLK-4, NEK-1, -2, -4, -6, -7, MAP4K4, STK16

T2 sequence (Q9NYY3 whole entry): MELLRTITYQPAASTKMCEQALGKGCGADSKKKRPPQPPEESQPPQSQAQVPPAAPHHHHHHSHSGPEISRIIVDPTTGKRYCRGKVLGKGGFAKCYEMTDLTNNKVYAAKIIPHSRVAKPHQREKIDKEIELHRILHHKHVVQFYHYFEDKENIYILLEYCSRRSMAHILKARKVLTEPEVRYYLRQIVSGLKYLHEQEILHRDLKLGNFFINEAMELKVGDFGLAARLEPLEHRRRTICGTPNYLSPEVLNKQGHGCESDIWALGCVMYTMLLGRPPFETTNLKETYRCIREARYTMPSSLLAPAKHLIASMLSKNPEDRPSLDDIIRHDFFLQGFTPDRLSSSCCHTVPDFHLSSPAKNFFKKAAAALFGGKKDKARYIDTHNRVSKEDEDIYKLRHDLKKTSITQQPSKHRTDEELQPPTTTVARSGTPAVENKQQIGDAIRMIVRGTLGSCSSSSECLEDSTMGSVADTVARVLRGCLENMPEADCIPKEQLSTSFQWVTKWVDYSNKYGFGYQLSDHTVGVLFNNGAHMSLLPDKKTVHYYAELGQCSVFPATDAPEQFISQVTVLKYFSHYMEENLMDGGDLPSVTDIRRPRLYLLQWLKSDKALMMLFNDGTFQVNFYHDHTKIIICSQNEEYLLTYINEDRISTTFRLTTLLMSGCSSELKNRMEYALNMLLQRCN
T1 sequence (P53350 whole entry): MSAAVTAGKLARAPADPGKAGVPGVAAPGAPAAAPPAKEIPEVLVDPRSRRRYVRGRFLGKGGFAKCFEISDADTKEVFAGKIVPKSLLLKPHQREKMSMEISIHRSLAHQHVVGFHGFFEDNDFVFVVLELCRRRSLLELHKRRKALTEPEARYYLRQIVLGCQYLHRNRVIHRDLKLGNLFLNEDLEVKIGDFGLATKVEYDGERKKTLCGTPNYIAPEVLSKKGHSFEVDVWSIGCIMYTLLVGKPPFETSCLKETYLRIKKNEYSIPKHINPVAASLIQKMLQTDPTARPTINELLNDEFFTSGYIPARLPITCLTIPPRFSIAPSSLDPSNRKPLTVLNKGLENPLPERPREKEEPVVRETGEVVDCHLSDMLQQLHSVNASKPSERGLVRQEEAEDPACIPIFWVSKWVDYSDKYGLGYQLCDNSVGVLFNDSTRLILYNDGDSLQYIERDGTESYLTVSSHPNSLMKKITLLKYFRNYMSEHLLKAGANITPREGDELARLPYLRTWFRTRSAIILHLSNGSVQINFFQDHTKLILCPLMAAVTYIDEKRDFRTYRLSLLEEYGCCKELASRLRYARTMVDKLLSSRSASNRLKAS
Chain of PLK3 (Q9H4B4 whole entry): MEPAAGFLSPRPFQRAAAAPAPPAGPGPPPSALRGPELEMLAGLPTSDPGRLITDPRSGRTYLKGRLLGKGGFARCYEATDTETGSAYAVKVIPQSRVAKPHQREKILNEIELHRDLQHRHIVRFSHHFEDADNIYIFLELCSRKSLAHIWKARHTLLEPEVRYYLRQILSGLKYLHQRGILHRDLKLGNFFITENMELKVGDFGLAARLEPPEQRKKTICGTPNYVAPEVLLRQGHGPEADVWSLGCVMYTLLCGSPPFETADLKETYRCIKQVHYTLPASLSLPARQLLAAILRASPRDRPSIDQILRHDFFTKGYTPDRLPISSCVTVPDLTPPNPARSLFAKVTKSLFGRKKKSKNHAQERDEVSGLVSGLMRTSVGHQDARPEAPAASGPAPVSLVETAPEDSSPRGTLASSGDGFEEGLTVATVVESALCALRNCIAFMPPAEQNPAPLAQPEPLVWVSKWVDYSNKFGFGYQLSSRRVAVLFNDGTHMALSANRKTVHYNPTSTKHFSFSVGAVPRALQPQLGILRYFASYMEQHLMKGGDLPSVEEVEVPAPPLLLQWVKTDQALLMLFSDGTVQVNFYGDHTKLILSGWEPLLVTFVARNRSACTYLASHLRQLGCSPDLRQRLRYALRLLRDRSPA
Chain of KDR (P35968 20-1356): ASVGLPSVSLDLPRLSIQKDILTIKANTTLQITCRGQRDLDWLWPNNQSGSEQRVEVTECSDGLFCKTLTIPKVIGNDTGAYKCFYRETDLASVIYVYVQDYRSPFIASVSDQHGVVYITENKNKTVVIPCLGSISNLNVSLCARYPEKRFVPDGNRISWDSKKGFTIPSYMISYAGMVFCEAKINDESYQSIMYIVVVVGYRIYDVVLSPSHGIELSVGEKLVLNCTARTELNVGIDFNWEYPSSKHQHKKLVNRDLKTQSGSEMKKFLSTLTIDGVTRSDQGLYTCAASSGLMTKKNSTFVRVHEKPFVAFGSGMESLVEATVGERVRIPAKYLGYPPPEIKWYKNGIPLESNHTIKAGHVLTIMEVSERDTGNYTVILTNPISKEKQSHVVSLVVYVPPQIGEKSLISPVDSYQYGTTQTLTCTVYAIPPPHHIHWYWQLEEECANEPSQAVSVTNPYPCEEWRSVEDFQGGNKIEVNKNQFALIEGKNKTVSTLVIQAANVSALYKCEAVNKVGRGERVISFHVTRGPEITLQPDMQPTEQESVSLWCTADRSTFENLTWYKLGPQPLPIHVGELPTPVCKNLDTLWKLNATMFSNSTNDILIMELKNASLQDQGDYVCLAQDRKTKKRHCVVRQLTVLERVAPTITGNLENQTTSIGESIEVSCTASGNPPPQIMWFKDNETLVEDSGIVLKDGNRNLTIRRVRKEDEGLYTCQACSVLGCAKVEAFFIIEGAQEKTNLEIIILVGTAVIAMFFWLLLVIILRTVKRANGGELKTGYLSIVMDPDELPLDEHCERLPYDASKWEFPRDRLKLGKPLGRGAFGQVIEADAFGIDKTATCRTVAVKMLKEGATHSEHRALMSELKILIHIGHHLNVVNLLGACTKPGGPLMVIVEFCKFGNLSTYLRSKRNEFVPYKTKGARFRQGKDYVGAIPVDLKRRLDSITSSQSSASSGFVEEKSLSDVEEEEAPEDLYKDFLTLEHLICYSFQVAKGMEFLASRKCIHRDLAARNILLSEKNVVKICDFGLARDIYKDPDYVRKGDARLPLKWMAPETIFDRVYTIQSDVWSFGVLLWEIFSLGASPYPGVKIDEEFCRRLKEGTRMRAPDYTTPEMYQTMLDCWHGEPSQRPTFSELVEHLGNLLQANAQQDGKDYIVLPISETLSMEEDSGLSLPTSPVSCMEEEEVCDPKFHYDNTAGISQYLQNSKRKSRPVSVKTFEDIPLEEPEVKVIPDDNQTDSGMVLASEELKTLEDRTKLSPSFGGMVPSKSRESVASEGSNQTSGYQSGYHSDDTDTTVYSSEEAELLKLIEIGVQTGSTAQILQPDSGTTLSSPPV
Chain of ABL1 (P00519 whole entry): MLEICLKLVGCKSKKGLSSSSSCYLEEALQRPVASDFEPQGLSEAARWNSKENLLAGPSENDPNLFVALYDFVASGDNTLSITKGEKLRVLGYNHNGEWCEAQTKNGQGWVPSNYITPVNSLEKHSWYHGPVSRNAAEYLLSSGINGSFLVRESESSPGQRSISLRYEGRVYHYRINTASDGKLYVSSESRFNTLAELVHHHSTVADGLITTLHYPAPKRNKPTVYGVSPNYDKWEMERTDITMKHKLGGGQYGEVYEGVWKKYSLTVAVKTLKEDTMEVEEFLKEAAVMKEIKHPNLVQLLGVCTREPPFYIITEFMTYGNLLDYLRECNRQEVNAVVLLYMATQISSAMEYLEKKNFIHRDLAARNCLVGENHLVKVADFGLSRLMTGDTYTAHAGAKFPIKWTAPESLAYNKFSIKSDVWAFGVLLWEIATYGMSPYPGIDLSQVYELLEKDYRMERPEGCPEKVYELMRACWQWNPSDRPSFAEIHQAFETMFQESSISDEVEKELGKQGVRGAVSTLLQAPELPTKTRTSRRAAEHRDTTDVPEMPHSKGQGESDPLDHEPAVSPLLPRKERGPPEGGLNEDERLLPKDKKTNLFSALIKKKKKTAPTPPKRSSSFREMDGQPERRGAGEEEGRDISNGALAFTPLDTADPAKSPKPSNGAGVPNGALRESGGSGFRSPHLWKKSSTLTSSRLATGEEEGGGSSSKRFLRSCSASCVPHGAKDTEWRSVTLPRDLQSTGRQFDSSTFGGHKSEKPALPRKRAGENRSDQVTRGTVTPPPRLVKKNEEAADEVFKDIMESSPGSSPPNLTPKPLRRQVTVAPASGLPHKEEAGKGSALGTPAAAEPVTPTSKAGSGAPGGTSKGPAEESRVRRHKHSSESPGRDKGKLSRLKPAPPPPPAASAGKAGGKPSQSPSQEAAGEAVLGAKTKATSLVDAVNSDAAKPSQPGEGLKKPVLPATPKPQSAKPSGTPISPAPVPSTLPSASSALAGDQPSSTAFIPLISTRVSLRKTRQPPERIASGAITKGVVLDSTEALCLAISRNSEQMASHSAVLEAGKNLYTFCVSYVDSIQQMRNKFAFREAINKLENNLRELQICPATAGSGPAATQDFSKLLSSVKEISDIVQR

Compound | IC50 [1] | IC50 [2] | IC50 [3] | activity against PLK1 in kinase panel [4] | activity against PLK2 in kinase panel [5] | inhibition at 10 µM [6] | inhibition at 10 µM [7] | inhibition of kinases in panel of over 300 [8]
CC[C@@H]1C(=O)N(C)c2cnc(-n3ccnc3-c3cscn3)nc2N1C1CCCC1 [Example 68, (R)-8-cyclopentyl-7-ethyl-5-methyl-2-(2-(thiazol-4-yl)-1H-imidazol-1-yl)-7,8-dihydropteridin-6(5H)-one] | < 1000 nM | < 1000 nM | < 1000 nM | potent | potent | – | – | –
CC[C@@]12CCCN1c1nc(-n3ccnc3-c3ccccc3)ncc1N(C)C2=O [Example 76, (S)-6a-ethyl-5-methyl-2-(2-phenyl-1H-imidazol-1-yl)-6a,7,8,9-tetrahydropyrrolo[2,1-h]pteridin-6(5H)-one] | – | – | – | potent | potent | – | – | –
CC[C@@H]1C(=O)N(C)c2cnc(-n3ccnc3-c3cccc(F)c3)nc2N1C1CCOC1 (stereo partly drawn) [Example 192, (7R)-7-ethyl-2-(2-(3-fluorophenyl)-1H-imidazol-1-yl)-5-methyl-8-(tetrahydrofuran-3-yl)-7,8-dihydropteridin-6(5H)-one] | < 1000 nM | < 1000 nM | 1000 to 10000 nM | potent | potent | > 80% | > 80% | below 40%
